Laboratory results reported in patent publication US20130303564A1, “METHOD FOR TREATING A NEURODEGENERATIVE DISORDER” (RUSH UNIVERSITY MEDICAL CENTER, priority 2012, published 2013).
Where two headings read alike, the source gives them in different places. Marks after values point to notes of the source that are not given here.

Experiments:
IL-1β = test system: IL-1β
Method: (§1) Activated microglia and astroglia are known to produce excessive amount of NO having the potential of damaging neurons in neurodegenerative disorders. We investigated the effect of NaPB on the expression of iNOS in microglia. LPS is a prototype inducer of various proinflammatory molecules in different cell types including mouse microglia. Therefore, primary mouse microglia preincubated with different doses of NaPB for 6 h were stimulated with LPS under serum-free condition. […] We used trichostatin A (TSA) and sodium butyrate (NaBu) for this purpose.
(§2) Isolation of Mouse Microglia: Microglia were isolated from mixed glial cultures. Briefly, on day 7-9, the mixed glial cultures were washed three times with Dulbecco's modified Eagle's medium/F-12 and subjected to shaking at 240 rpm for 2 h at 37° C. on a rotary shaker. The floating cells were washed and seeded on to plastic tissue culture flasks and incubated at 37° C. for 1 h. The attached cells were seeded onto new plates for further studies. […] Mouse BV-2 microglial cells (kind gift from Virginia Bocchini of Universityof Perugia) were also maintained and induced as indicated above.

TNF-α = test system: TNF-α
Method: as §1, §2

human iNOS promoter = settings: phiNOS(7.2)Luc; 6 h preincubation, IL-1β 20 ng/ml 12 h
Method: (§3) Primary mouse microglia were treated with different concentrations of NaPB for 6 h followed by stimulation with LPS under serum-free condition. After 24 h of stimulation, concentrations of nitrite were measured in supernatants (A) and the level of iNOS protein was monitored in cells by Western blot (B). […] After 5 h of stimulation, the expression of iNOS mRNA was monitored by semi-quantitative RT-PCR (C). Cells preinctibated with different concentration of trichostatin A (TSA) and sodium butyrate (NaBu) for 6 h were stimulated with LPS for 24 h under serum-free condition followed by monitoring the level of nitrite in supernatants (p). […] Primary human astroglia isolated from fetal brain tissues were treated with different concentrations of NaPB for 6 h followed by stimulation with IL-1β under serum-free condition. After 48 h of stimulation, concentrations of nitrite (E) were measured in supernatants. Human astroglia plated at 70-80% confluence in 12-well plates were co-transfected with 0.25 μg of phiNOS(7.2)Luc and 12.5 ng of pRL-TK using the Lipofectamine-Plus (Invitrogen). Twenty-four h after transfection, cells received NaPB. After 6 h of incubation, cells were stimulated with IL-1β (20 ng/ml) for 12 h. Firefly (ff-Luc) and Renilla (r-Luc) luciferase activities were obtained by analyzing the total cell extract (F).

primary human astroglia = settings: 6 h preincubation, IL-1β 48 h
Method: as §3

NF-κB = assay: Transcriptional activity of NF-κB (PBIIX-Luc reporter) in BV-2 microglial cells; type: cell-based, mouse
Method: Transcriptional activity of NF-κB: Transcriptional activity of NF-κB was assayed. […] After 24 h of transfection, […], and firefly and Renilla luciferase activities were recorded in a TD-20/20 Luminometer (Turner Designs, Sunnyvale, Calif.) by analyzing total cell extract according to standard instructions provided in the Dual Luciferase Kit (Promega), Relative luciferase activity of cell extracts was typically represented as (firefly luciferase value/Renilta luciferase value)×10^−3.

cholesterol = assay: Serum cholesterol in male C57/BL6 mice; type: in vivo, mouse; settings: 200 mg/kg body wt/d, oral, 7 d
Method: Mice (6-8 wk old) were treated with NaPB (200 mg/kg body wt/d) and pravastatin (1 mg/kg body wt/d) separately via gavage for 7 d followed by quantification of cholesterol in serum using a simple fluorometric method.
Intermediates of the mevalonate pathway play a role in the expression of iNOS and proinflammatory cytokines in glial cells. End product of the mevalonate pathway is cholesterol and therefore, we investigated if NaPB had any effect on the level of cholesterol in vivo in mice.
Assay of cholesterol in serum: Total cholesterol was quantified irr serum by using an Amplex Red Cholesterol Assay kit from Invitrogen. Briefly, cholesterol was oxidized by cholesterol oxidase to yield H2O2, which then reacted with 10-acetyl-3,7 dihydroxyphenoxazine (Amplex Red). In the presence of horseradish peroxidase (HRP), this Amplex Red:H2O2 complex produced highly fluorescent resorufin, which was detected by fluorometry.

MPTP-intoxicated mice [1] = assay: HPLC analysis of striatal dopamine in acute MPTP-intoxicated mice; type: in vivo, mouse; settings: NaPB 200 mg/kg body wt/day from 3 h after last MPTP; 7 days; MPTP alone about 76% decrease
Method: (§4) Mice receiving NaPB (200 mg/kg body wt/day) from 3 h after the last injection of MPTP were sacrificed 7d after the last injection of MPTP followed by TH immunostaining of SNpc (A) and striatum (B), counting of TH-positive neurons in SNpc (C), quantification of TH-positive fibers in striatum (D), assay of neurotransmitters in striatum (E), and quantification of GSH in nigra (F). Data are means+SEM of eight mice per group. ^ap<0.0001 vs saline group; ^bp<0.0001 vs the MPTP group.
(§5) Animals and MPTP intoxications: Six- to eight-week old C57BL/6 mice were purchased from Harlan, Indianapolis, Ind. For acute MPTP intoxication, mice received four intraperitoneal (i.p.) injections of MPTP-HCl (18 mg/kg of free base; Sigma Chemical Co., St. Louis, Mo.) in saline at 2 hr intervals. Control animals received only saline.
HPLC analysis of striatal dopamine and its metabolite levels: Striatal level of dopamine, DOPAC (3,4-dihydroxyphenylacetic acid) and HVA (homovanillic acid) was quantified. […] After pH adjustment and filtration, lOul of supernatant was injected onto an Eicompak SC-3ODS column (Complete Stand-Alone HPLC-ECD System EiCOMITTEC-500 from JM Science Inc., Grand Island, N.Y.) and analyzed following manufacturer's protocol.

phospho-IκBα = settings: 0.5 mM, 6 h preincubation, LPS 1 μg/ml
Method: (A) BV-2 microglial cells preincubated with 0.5 mM NaPB for 6 h were stimulated with 1 μg/ml LPS. At different minute of stimulation, the level of phospho-1κBα was monitored by Western blot.
Activation of NF-κB was monitored by IκBαphosphorylation, DNA binding activity by EMSA and transcriptional activity by reporter assays.

p21^rac [2] = settings: 500 μM preincubation
Method: D) Cells preincubated with 500 μM NaPB were stimulated with LPS. At different time points, activation of p21^ras and p21^rac was monitored. Results represent three independent experiments.

p21^rac [3] = settings: 200 mg/kg body wt/day gavage from 1 d prior to MPTP; 6 h after last MPTP
Method: A) Mice were treated with NaPB (200 mg/kg body wt/d.) via gavage from 1 d prior to MPTP injection. Six h after the last injection of MPTP, activation of p21^ras and p21^rac was monitored in ventral midbrain tissues. Experiment was repeated three times each time using two animal in each group. B) Bands from three different mice were quantified and activation of p21^ras and p21^rac is shown as percent of control, C) Mice were treated with NaPB (200 mg/kg body wt/d) from 3 h after the last injection of MPTP.
as §5

[4] = test system: dopaminergic neurons of MPTP-intoxicated mice; settings: 200 mg/kg body wt/day from 3 h after last MPTP, 7 d
Method: as §4
For acute MPTP intoxication, mice received four intraperitoneal (i.p.) injections of MPTP-HCl (18 mg/kg of free base; Sigma Chemical Co., St. Louis, Mo.) in saline at 2 hr intervals. Control animals received only saline. For chronic MPTP intoxication, mice received 10 injections of MPTP (s.c.; 25 mg/kg body weight) together with 10 injections of probenecid (i.p.; 250 mg/kg body weight) at an interval of 3.5 d.
Therefore, for short-term treatment, mice with acute MPTP 3 h after the last injection of MPTP. […]
Immunohistochemistry and quantitative morphology: Seven days after MPTP intoxication, mice were sacrificed and their brains fixed, embedded, and processed for tyrosine hydroxylase (TH) staining. […] Quantitation of striatal TH immunostaining was performed. […]

MPTP-intoxicated mice [5] = settings: NaPB 200 mg/kg body wt/day from 3 h after last MPTP; MPTP alone approximately 72% loss
Method: We monitored the level of nigral GSH by HPLC.
Analysis of GSH: Nigral tissues were dissected and then sonicated in 0.2M perchloric acid solution followed by centrifugation of nigral extracts at 12,000 rpm for 10 mins at 4° C. Resulting supernatants were analyzed for GSH in Complete Stand-Alone HPLC-ECD System EiCOMHTEC-500 using gold working electrode (Eicorn We-AU) and mobile phase containing 99% 0.1M sodium phosphate buffer (pH 2.5), 1% MeOH. (v/v), and 50 mg/L EDTA-2Na.

[6] = LPS + NaPB (0.1 mM), 6 hrs preincubation, LPS 24 hrs, supernatant ELISA
[7] = LPS + NaPB (0.2 mM), 6 hrs preincubation, LPS 24 hrs, supernatant ELISA
[8] = LPS + NaPB (0.5 mM), 6 hrs preincubation, LPS 24 hrs, supernatant ELISA

Method for p21^ras: A) Mice were treated with NaPB (200 mg/kg body wt/d.) via gavage from 1 d prior to MPTP injection. Six h after the last injection of MPTP, activation of p21^ras and p21^rac was monitored in ventral midbrain tissues. Experiment was repeated three times each time using two animal in each group. […] Results represent three independent experiments.
A) Mice were treated with NaPB (200 mg/kg body wt/d) via gavage from 1 d prior to MPTP injection. At different h of MPTP insult, nigral punches from mice were pooled together and analyzed for the activation of p21′ (A) and the expression of iNOS mRNA (B, RT-PCR; C, real-time PGR). Experiments were repeated three times each time using two animals in each group. ^ap<0.001 vs control (Oh)-iNOS.
Therefore, in order to delineate whether glial activation-associated events happen before or after the loss of dopaminergic neurons, we performed a time-course study to monitor nigral activation of p21^ras and expression of iNOS and striatal loss of dopamine in MPTP-intoxicated mice, Micropunches from the nigra were used for monitoring p21^ras and iNOS.
Animals and MPTP intoxications: Six- to eight-week old C57BL/6 mice were purchased from Harlan, Indianapolis, Ind. […]
Activation of p21^ras and p21^rac: Activation of p21^ras was monitored. […] Then the amount of activated p21^ras was determined in GST beads by a Western blot using a p21^ras specific antibody.

## sodium phenylbutyrate [NaPB]
IL-1β; [6]
  IL-1β production: 9.9 ± 1.4 ng/mg protein/24 hr
IL-1β; [7]
  IL-1β production: 7.5 ± 1.1 ng/mg protein/24 hr
IL-1β; [8]
  IL-1β production: 5.3 ± 0.6^a ng/mg protein/24 hr
IL-1β; NaPB (0.5 mM) only, no LPS
  IL-1β production: 0 ng/mg protein/24 hr
IL-1β; Table 1
  production of IL-1β protein in activated microglia: dose-dependently inhibited
TNF-α; [6]
  TNF-α production: 16.8 ± 1.5 ng/mg protein/24 hr
TNF-α; [7]
  TNF-α production: 12.7 ± 0.8 ng/mg protein/24 hr
TNF-α; [8]
  TNF-α production: 8.6 ± 1.1^a ng/mg protein/24 hr
TNF-α; NaPB (0.5 mM) only, no LPS
  TNF-α production: 0 ng/mg protein/24 hr
TNF-α; Table 1
  production of TNF-α protein in activated microglia: dose-dependently inhibited
Human iNOS promoter
  IL-1β-induced activation of iNOS promoter: markedly inhibited
Primary human astroglia
  IL-1β-induced production of NO: markedly inhibited
NF-κB; RasV12-transfected cells, NaPB 6 h
  RasV12-induced activation of NF-κB: attenuated
NF-κB; different concentrations, 6 h preincubation
  LPS-induced transcriptional activity of NF-κB: suppressed
cholesterol
  reduction of the level of cholesterol in serum: about 30%
MPTP-intoxicated mice [1]
  decrease in striatal dopamine: 20-25%
phospho-IκBα
  LPS-induced phosphorylation of IκBα: inhibited
p21^rac [2]
  LPS-induced activation of p21^rac: markedly suppressed
p21^ras; 200 mg/kg body wt/d gavage from 1 d prior to MPTP, all time points tested (up to 24 h)
  activation of p21^ras in the nigra, time course: markedly inhibited
p21^ras; 200 mg/kg body wt/day gavage from 1 d prior to MPTP, 6 h after last MPTP
  MPTP-induced activation of p21^ras in the nigra: much decreased activation
p21^rac [3]
  MPTP-induced activation of p21^rac in the nigra: much decreased activation
[4]; vs MPTP alone (70% reduction)
  reduction in striatal TH ODs: less reduction
[4]; vs MPTP alone (approximately 75% loss)
  reduction in SNpc TH-positive neurons: less reduction
MPTP-intoxicated mice [5]
  loss of nigral GSH: 18%
